Experimental data reported in patent US20060264410A1, “19,26,27-trinor-1alpha,25-dihydroxyvitamin D3 compounds” (Wisconsin Alumni Research Foundation, priority 2005, published 2006).
“Also recorded” adds a separate entry of the source.

Legend:
[1] = system: cell differentiation; conditions: prior art; cited from earlier work
[2] = molecular target: T1, vitamin D receptor (Homo sapiens, UniProt P11473); conditions: from '352, '861 and '622 patents; cited from earlier work
T1 sequence (P11473 1-427): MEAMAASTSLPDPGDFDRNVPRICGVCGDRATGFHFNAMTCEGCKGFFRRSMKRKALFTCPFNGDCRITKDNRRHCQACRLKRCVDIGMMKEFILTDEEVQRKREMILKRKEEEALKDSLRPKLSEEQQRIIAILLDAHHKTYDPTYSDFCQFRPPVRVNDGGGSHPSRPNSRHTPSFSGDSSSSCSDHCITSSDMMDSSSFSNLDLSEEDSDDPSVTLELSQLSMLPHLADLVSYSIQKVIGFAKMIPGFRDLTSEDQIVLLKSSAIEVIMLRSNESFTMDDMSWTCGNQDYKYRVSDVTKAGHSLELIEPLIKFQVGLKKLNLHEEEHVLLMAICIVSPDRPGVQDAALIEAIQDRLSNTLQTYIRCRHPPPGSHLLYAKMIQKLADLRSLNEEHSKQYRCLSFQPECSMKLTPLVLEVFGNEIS

[3] = prior art; b9 values compared to 1α,25-dihydroxyvitamin D3; cited from earlier work
[4] = molecular target: T2, full-length recombinant rat vitamin D receptor (Rattus norvegicus, UniProt P13053); test: Vitamin D receptor binding, competition with [3H]-1,25-(OH)2-D3; conditions: FIGS. 1 and 2
T2 construct: Full-length recombinant rat receptor was expressed in E. coli BL21(DE3) Codon Plus RIL cells; histidine tag (C); made in house; host or cells: E. coli BL21(DE3) Codon Plus RIL
T2 sequence (P13053 1-423): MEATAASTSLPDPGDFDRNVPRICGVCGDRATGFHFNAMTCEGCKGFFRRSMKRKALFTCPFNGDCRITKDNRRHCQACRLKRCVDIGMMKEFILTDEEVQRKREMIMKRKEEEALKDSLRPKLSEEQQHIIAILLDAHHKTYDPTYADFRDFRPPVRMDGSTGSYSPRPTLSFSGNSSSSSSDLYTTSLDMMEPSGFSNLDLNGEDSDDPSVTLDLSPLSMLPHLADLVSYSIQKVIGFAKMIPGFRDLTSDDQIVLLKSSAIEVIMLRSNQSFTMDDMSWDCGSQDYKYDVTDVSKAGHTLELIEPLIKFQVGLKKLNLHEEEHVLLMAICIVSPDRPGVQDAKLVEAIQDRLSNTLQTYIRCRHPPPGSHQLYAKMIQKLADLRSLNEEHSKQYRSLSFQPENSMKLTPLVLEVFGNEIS
Protocol: Full-length recombinant rat receptor was expressed in E. coli BL21(DE3) Codon Plus RIL cells and purified to homogeneity using two different column chromatography systems. The first system was a nickel affinity resin that utilizes the C-terminal histidine tag on this protein. The protein that was eluted from this resin was further purified using ion exchange chromatography (S-Sepharose Fast Flow). Aliquots of the purified protein were quick frozen in liquid nitrogen and stored at −80° C. until use. For use in binding assays, the protein was diluted in TEDK50 (50 mM Tris, 1.5 mM EDTA, pH 7.4, 5 mM DTT, 150 mM KCl) with 0.1% Chaps detergent. The receptor protein and ligand concentration was optimized such that no more than 20% of the added radiolabeled ligand was bound to the receptor.
Unlabeled ligands were dissolved in ethanol and the concentrations determined using UV spectrophotometry (1,25(OH)2D3: molar extinction coefficient=18,200 and λmax=265 nm; Analogs: molar extinction coefficient=42,000 and λmax=252 nm). Radiolabeled ligand (^3H-1,25(OH)2D3, ˜159 Ci/mmol) was added in ethanol at a final concentration of 1 nM.
Radiolabeled and unlabeled ligands were added to 100 mcl of the diluted protein at a final ethanol concentration of ≦10%, mixed and incubated overnight on ice to reach binding equilibrium. The following day, 100 mcl of hydroxylapatite slurry (50%) was added to each tube and mixed at 10-minute intervals for 30 minutes. The hydroxylapaptite was collected by centrifugation and then washed three times with Tris-EDTA buffer (50 mM Tris, 1.5 mM EDTA, pH 7.4) containing 0.5% Titron X-100. After the final wash, the pellets were transferred to scintillation vials containing 4 mL of Biosafe II scintillation cocktail, mixed and placed in a scintillation counter. Total binding was determined from the tubes containing only radiolabeled ligand.

[5] = Intestinal calcium transport (everted gut sac method); assay type: in vivo, Sprague-Dawley rats; conditions: rats, four ip doses; FIGS. 6 and 8
Protocol: (§1) Male, weanling Sprague-Dawley rats were placed on Diet 11 (Suda et al. J. Nutr. 100:1049, 1970) (0.47% Ca) diet+vitamins AEK for one week followed by Diet 11 (0.02% Ca)+AEK for 3 weeks. The rats were then switched to a diet containing 0.47% Ca for one week followed by two weeks on the diet containing 0.02% Ca. Dose administration began during the last week on 0.02% calcium diet. Four consecutive ip doses were given approximately 24 hours apart. Twenty-four hours after the last dose, blood was collected from the severed neck and the concentration of serum calcium determined as a measure of bone calcium mobilization. The first 10 cm of the intestine was also collected for intestinal calcium transport analysis using the everted gut sac method.

[6] = system: 24-hydroxylase (24Ohase) gene promoter; test: In vitro transcription assay (luciferase reporter in ROS 17/2.8 cells); assay type: cell-based; conditions: 24Ohase promoter-luciferase, FIG. 4
Protocol: Transcription activity was measured in ROS 17/2.8 (bone) cells that were stably transfected with a 24-hydroxylase (24Ohase) gene promoter upstream of a luciferase reporter gene (Arbour et al., 1998). Cells were given a range of doses. Sixteen hours after dosing the cells were harvested and luciferase activities were measured using a luminometer. RLU=relative luciferase units.

[7] = system: HL-60 cells; test: HL-60 differentiation (nitro blue tetrazolium reduction); assay type: cell-based, Human; conditions: FIG. 3
Protocol: The study drugs were dissolved in ethanol and the concentrations determined using UV spectrophotometry. Serial dilutions were prepared so that a range of drug concentrations could be tested without changing the final concentration of ethanol (≦0.2%) present in the cell cultures.
Human promyelocytic leukemia (HL60) cells were grown in RPMI-1640 medium containing 10% fetal bovine serum. The cells were incubated at 37° C. in the presence of 5% CO2.
HL60 cells were plated at 1.2×10^5 cells/mL. Eighteen hours after plating, cells in duplicate were treated with drug. Four days later, the cells were harvested and a nitro blue tetrazolium reduction assay was performed (Collins et al., 1979; J. Exp. Med. 149:969-974). The percentage of differentiated cells was determined by counting a total of 200 cells and recording the number that contained intracellular black-blue formazan deposits. Verification of differentiation to monocytic cells was determined by measuring phagocytic activity (data not shown).

[8] = Bone calcium mobilization (serum calcium); assay type: in vivo, Sprague-Dawley rats; conditions: rats, four ip doses, even at 7,020 pmol/day; FIGS. 5 and 7
Protocol: as §1

Molecule	cell differentiation activity [1]	binding activity to the vitamin D receptor [2]	calcemic / calcium mobilizing activity [3]	activity in binding to the vitamin D receptor compared with 1α,25-dihydroxyvitamin D3 [4]	intestinal calcium transport [5]	activity in causing transcription compared with 1α,25-dihydroxyvitamin D3 [6]	activity in inducing differentiation of HL-60 cells compared with 1α,25-dihydroxyvitamin D3 [7]	calcemic activity measured by bone calcium mobilization [8]
1α-hydroxy-2-methylene-19-nor-bishomopregnacalciferol	relatively high cell differentiation activity	relatively high binding activity	little if any calcemic activity	–	–	–	–	–
C[C@H](CCCC(C)(C)O)[C@H]1CC[C@H]2/C(=C/C=C3C[C@@H](O)C[C@H](O)C3)CCC[C@]12C [1α,25-dihydroxy-19-nor-vitamin D3]	high potency	–	very low calcium mobilizing activity	–	–	–	–	–
CC(CCCCO)C1CCC2C(=CC=C3CC(O)C(C)C(O)C3)CCCC21C [P10, 2α-methyl-19,26,27-trinor-(20S)-1α,25-dihydroxyvitamin D3]	–	–	–	slightly more active	do not elevate intestinal calcium transport	slightly less activity	less activity	no calcemic activity
CC1[C@H](O)CC(=C/C=C2\CCC[C@]3(C)[C@@H]([C@@H](C)CCCCO)CC[C@@H]23)C[C@H]1O (stereo partly drawn) [T-74, 2β-methyl-19,26,27-trinor-(20S)-1α,25-dihydroxyvitamin D3]	–	–	–	significantly less active	do not elevate intestinal calcium transport	significantly less activity	significantly less activity	no calcemic activity
C=C1[C@H](O)CC(=C/C=C2\CCC[C@]3(C)[C@@H](CC)CC[C@@H]23)C[C@H]1O [1α-Hydroxy-2-methylene-19-nor-pregnacalciferol]	relatively high cell differentiation activity	relatively high binding activity	little if any calcemic activity	–	–	–	–	–
C=C1[C@H](O)CC(=C/C=C2\CCC[C@]3(C)[C@@H]([C@@H](C)CCCCO)CC[C@@H]23)C[C@H]1O [BM, 2-methylene-19,26,27-trinor-(20S)-1α,25-dihydroxyvitamin D3]	–	–	–	slightly less active	do not elevate intestinal calcium transport	slightly less activity	only slightly less active; also recorded: about the same activity	no calcemic activity
1α-hydroxy-2-methylene-19-nor-(20S)-homopregnacalciferol	relatively high cell differentiation activity	relatively high binding activity	little if any calcemic activity	–	–	–	–	–
